Measured values reported in paper PMC10518255, “A first-in-class pan-lysyl oxidase inhibitor impairs stromal remodeling and enhances gemcitabine response and survival in pancreatic cancer” (Nature Cancer, 2023).
Several values for one entry are separate records, joined by “and”; a condition that tells them apart may be missing. Equal entries are not always repeated.

Key:
SSAO = target: T1, SSAO (Homo sapiens, UniProt Q16853); test: Substrate turnover by H2O2 release, amplex red coupled fluorometric activity assay (Extended Data Fig. 3a); assay type: biochemical
T1 sequence (Q16853 1-763): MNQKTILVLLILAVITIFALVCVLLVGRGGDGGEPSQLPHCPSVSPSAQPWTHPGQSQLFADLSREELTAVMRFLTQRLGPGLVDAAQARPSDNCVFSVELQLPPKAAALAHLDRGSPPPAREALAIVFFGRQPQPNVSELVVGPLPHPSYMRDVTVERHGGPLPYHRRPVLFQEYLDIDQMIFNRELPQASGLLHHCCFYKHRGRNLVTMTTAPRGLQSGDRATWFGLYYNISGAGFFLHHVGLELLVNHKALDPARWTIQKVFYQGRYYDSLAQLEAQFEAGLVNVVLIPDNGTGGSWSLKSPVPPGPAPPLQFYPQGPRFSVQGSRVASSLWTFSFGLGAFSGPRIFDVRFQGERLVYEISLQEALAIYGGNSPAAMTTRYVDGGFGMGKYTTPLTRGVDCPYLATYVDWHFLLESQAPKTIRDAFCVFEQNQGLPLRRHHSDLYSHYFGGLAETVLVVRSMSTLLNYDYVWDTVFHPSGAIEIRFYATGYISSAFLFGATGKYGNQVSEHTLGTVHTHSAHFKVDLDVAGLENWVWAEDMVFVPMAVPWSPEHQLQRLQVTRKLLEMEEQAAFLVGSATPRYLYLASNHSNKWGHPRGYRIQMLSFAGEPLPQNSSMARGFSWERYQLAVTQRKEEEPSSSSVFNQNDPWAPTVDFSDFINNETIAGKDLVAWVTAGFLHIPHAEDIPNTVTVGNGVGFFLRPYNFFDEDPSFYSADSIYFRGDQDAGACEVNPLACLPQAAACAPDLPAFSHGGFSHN
Text: Specifically, BAPN is oxidized by diamine oxidase (DAO) and semicarbazide-sensitive amine oxidase (SSAO)/vascular adhesion protein 1 (VAP-1) in the vasculature (Extended Data Fig. 3a), which releases hydrogen […] (H2O2) and aldehyde in humans leading to toxicity.
Data presented as mean values +/− SD. f. […] Data presented as mean values +/− SD. […] Data presented as mean values +/− SD. […] Data presented as mean values +/− SD. Ordinary one-way ANOVA for multiple comparison test performed. Source data

Hepatocyte stability = assay type: in vitro ADME; conditions: hepatocytes; In vitro (human)
KPC CCs = test: Cancer cell invasion into CAF-remodeled 3D organotypic matrices; assay type: cell-based, mouse; conditions: for number of cancer cells invaded per FOV: single replicates
Description: Fig. 3 PXS-5505 inhibition of CAF remodeling in vitro. a, Quantitative PCR with reverse transcription (qRT–PCR) showing in vitro comparison of KPC CAF relative expression of lysyl oxidase family members compared to KPC CCs from the same model (n = 3 biologically independent samples). Comparisons were determined by 2^–∆∆Ct approach. b, Representative images of 3D organotypic matrix contraction assay at days 2, 6 and 12 in the absence (gray) or presence (pink) of PXS-5505 (30 µM). Scale bars, 5 mm. Comparison of measured area of matrices between control and PXS-5505 treatment groups over time (n = 3 technical samples examined over three biologically independent samples). Data are mean ± s.d. c, Concentration of immature divalent DHLNL and mature trivalent Pyr collagen crosslinks determined by LC–MS from control and PXS-5505-treated organotypic matrices at day 12 (n = 3 technical samples examined over two biologically independent samples). Data are mean ± s.d. […] Data are presented as mean ± s.d. […] Comparison of number of CCs invaded per field of view (FOV) as determined by H&E and PanCK staining (nine images taken from three technical samples from each of three biologically independent contracted matrices), normalized to control. Data are mean ± s.d. Scale bars, 100 μm. […] Source data
Following remodeling, 4 × 10^4 KPC CCs were seeded on top of the remodeled matrix in DMEM supplemented with 10% FBS and 1% penicillin–streptomycin and allowed to grow to confluence for 4 days, after which matrices were transferred to an air–liquid interface and CCs allowed to invade into the organotypic matrices for 12 days (Extended Data Fig. 4f). PXS-5505 (30 μM) or PXS-5120 (100 nM) was added to medium at 48-h intervals for the duration. At the end point, matrices were fixed in 10% formalin and processed for histological analysis by H&E and panCK staining. The invasive index was measured in three representative areas per matrix and the number of invaded cells per mm^2 was calculated. No statistical methods were used to predetermine sample sizes but our sample sizes are similar to those reported in previous publications[36],[39].
Extended Data Fig. 4 PXS-5505 inhibits collagen cross-linking by PDAC CAFs in vitro resulting in decreased cancer cell invasion. a. Schematic of organotypic matrix remodeling assay whereby CAFs are embedded into a 3D collagen matrix and growth media supplemented with or without PXS-5505 to inhibit lysyl oxidase family activity b. Chemical structures of lysyl oxidase family catalyzed hydroxyallysine or allysine residues and the subsequent divalent and trivalent bonds that are formed that can be quantified by mass spectrometry. c. Representative images of 3D organotypic matrix contraction by human pancreatic cancer CAFs at days 2, 6 and 12 in the absence (gray) and presence (pink) of PXS-5505 (30 µM). Scale bars = 5 mm. […] Data presented as mean values +/− SD. d. […] Data presented as mean values +/− SD. Relative fold expression of LOXL family members compared to LOX were determined by 2^–∆∆Ct approach. f. […] Comparison of measured area of matrices between control, PXS-5120 and PXS-5505 treatment groups (n = 3) over time. i. […] Representative images of invasion of KPC cancer cells into a contracted organotypic matrix as determined by H&E staining. […]

Cl.Cl.NC/C=C(\F)CS(=O)(=O)c1cccc2cccnc12.O [PXS-5505, (Z)-3-fluoro-4-(quinolin-8-ylsulfonyl)but-2-en-1-amine dihydrochloride monohydrate]
processing as a substrate by SSAO/VAP-1 (SSAO): not processed as a substrate | Turnover by SSAO as measured by H2O2 release, mean (SSAO; listed as value 30 (unit not given)): 1.019 | Turnover by SSAO as measured by H2O2 release, mean (SSAO; listed as value 60 (unit not given)): 1.0116 | Turnover by SSAO as measured by H2O2 release, mean (SSAO; listed as value 300 (unit not given)): 1.1921 | remaining at 1 h (Hepatocyte stability): 90% | depth of invasion (KPC CCs; PXS-5505 30 µM): no significant difference in depth of invasion | invasion into the organotypic matrices by CCs (KPC CCs; PXS-5505 30 µM): decrease in invasion | number of cancer cells invaded per FOV (KPC CCs; determined by H&E): 0.4375 and 0.5681 and 0.5386 and 0.8338 and 0.9078 and 0.6013 and 0.6222 and 0.3197 and 1.014 | number of cancer cells invaded per FOV (KPC CCs; determined by PanCK): 0.6309 and 0.4054 and 0.3571 and 0.6771 and 0.6115 and 1.118 and 0.7087 and 0.8827 and 0.7763
